US20200399335A1, “MODIFIED IMMUNOMODULATORY PEPTIDE” (Aarhus Universitet, priority 2018, published 2020)
Where no end group is shown, it is not given here. The star is where a group is joined. Biotin = O=C1N[C@H]2[C@H](CS[C@H]2CCCCC(=O)*)N1

Tests used:
[1] = Circular dichroism spectrum of polypeptides; assay type: physicochemical; conditions: in the recommended buffer
Text: FIG. 5. CD spectra of polypeptides with specific alanine mutations.
The Example illustrate the CD spectrum of polypeptide (SEQ ID NO. 6) and two alanine mutations (SEQ ID NO. 17 and 19). […] FIG. 5.

[2] = tested on: STING activation; test: Screening of alanine modified peptides in PMA-differentiated THP1 cells stimulated with 2′3′cGAMP; conditions: PMA-treated THP1 (STING HAQ), peptide pre-stimulation 1 hour, then 2′3′cGAMP, supernatant 20 hours; alanine variant vs SEQ ID NO.6
Text: Screening of alanine modified peptides in THP1 cells. […] THP1 cells were differentiated into macrophages using PMA. […] Twenty hours later supernatants were harvest and used to assess the production of type I IFN (A) or CXCL10 (B). Data represent the mean±SD of biological triplicates, representative of two independent experiments
(§1) To quantify functional type I IFN the reporter cell line HEK-Blue™ IFN-α/β (InvivoGen) was utilized according to the manufacturer's instructions. […] This cell line expresses secreted embryonic alkaline phosphatase under the control of the IFN-α/β inducible ISG54 promotor. SEAP activity was assessed by measuring optical density (OD) at 620 nm on a micro plate reader (ELx808, BioTEK). The standard range was made with IFN-α (A2) (PBL Assay Science).
(§2) Protein levels of the cytokines CXCL10 and IL6 in supernatants, were measured using DuoSet ELISA kits from RnD following the manufacturer's instructions.

[3] = tested on: STING activation; conditions: PBMCs of two donors with wildtype STING, peptide priming then HT-DNA, 20 hours; vs parental SEQ ID NO.6
Experimental: Both donors carried STING wildtype proteins allowing us to evaluate important amino acid positions within the polypeptide.
(§3) Peripheral Blood Mononuclear cells (PBMCs) were isolated from healthy donors by Ficoll Paque gradient centrifugation (GE Healthcare). PBMCs were cultured in RPMI complete supplemented with IL-2.
as §1, §2

[4] = tested on: human fibroblast; test: Cell viability test in human fibroblast (CellTiter-Glo); assay type: cell-based; conditions: 48 hpi
Experimental: FIG. 8. Cell viability test. […] As a positive control for cell death, human fibroblast was treated with staurosporine (500 nM). Cell viability was analyzed 48 hpi.
The highest peptide concentration utilized in the present studies reached a maximum cell death percentage of less than 10%; cf. FIG. 8.
Viability tests were conducted using the CellTiter-Glo® 2.0 Assay (Promega, G9242). Each sample was conducted in technical triplicates and luminescence data analyzed.

[5] = tested on: HSV-1 GFP; test: HSV-1 GFP infection of human fibroblast, flow cytometry 48 hpi; conditions: for viral inhibition of alanine variant compared with SEQ ID NO.6 / viral inhibition: HSV-1 GFP MOI 0.05, 48 hpi
Text: Screening of alanine modified peptides in human fibroblasts.
Data was processed in FlowJo (Tree Star)

[6] = tested on: STING activation; conditions: previously shown; no details given; cited from earlier work
[7] = tested on: STING activity; conditions: PBMCs from two donors, peptide pre-treatment then cGAMP; vs peptide 101
Experimental: as §3, §1, §2

Substance: KKYKNIVLLKALEVINDYHF ((1)..(20) An immunomodulatory polypeptide derived from the pyrin domain of human IFI16 with amino acid residue changes.) [peptide A11]
- secondary structure from CD spectrum [1]: random coil-coil formation
- synergistic effect of supporting STING activation: CXCL10 cytokine secretion [2]: strongly affected the synergistic effects

Substance: KKYKNIVALKGLEVINDYHF ((1)..(20) An immunomodulatory polypeptide derived from the pyrin domain of human IFI16 with amino acid residue changes.) [peptide A8]
- synergistic effect of supporting STING activation: induction of type I IFNs [2]: affected polypeptide synergistic effects

Substance: KKYKNIVLAKGLEVINDYHF ((1)..(20) An immunomodulatory polypeptide derived from the pyrin domain of human IFI16 with amino acid residue changes.) [peptide A9]
- synergistic effect of supporting STING activation: induction of type I IFNs [2]: affected polypeptide synergistic effects

Substance: KKYKNIVLLKGLEVIADYHF ((1)..(20) An immunomodulatory polypeptide derived from the pyrin domain of human IFI16 with amino acid residue changes.) [peptide A16]
- secretion of interleukin IL6 [3]: prohibited the synergistic effects

Substance: KKYKNIVLLKGLEVINDYAF ((1)..(20) An immunomodulatory polypeptide derived from the pyrin domain of human IFI16 with amino acid residue changes.) [peptide A19]
- synergistic effect of supporting STING activation: CXCL10 cytokine secretion [2]: strongly affected the synergistic effects

Substance: KKAKNIVLLKGLEVINDYHF ((1)..(20) An immunomodulatory polypeptide derived from the pyrin domain of human IFI16 with amino acid residue changes.) [peptide A3]
- secretion of interleukin IL6 [3]: very potent and synergistic effect

Substance: KKYKNIVLLKGLEVINDYHF-NH2 [peptide 101]
- toxicity in human fibroblast ([4]; HSV-1 GFP, HSV-2 GFP (MOI 0.05) or uninfected): no toxicity
- maximum cell death percentage ([4]; highest peptide concentration utilized (80 μg/mL)): less than 10%

Substance: KKYKNIALLKGLEVINDYHF ((1)..(20) An immunomodulatory polypeptide derived from the pyrin domain of human IFI16 with amino acid residue changes.) [peptide A7]
- viral inhibition of alanine variant compared with SEQ ID NO.6 [5]: depleted
- secretion of interleukin IL6 [3]: prohibited the synergistic effects

Substance: KKYKNIVLLKGLEAINDYHF ((1)..(20) An immunomodulatory polypeptide derived from the pyrin domain of human IFI16 with amino acid residue changes.) [peptide A14]
- viral inhibition of alanine variant compared with SEQ ID NO.6 [5]: decreased

Substance: KKYKNIVLLKGLAVINDYHF ((1)..(20) An immunomodulatory polypeptide derived from the pyrin domain of human IFI16 with amino acid residue changes.) [peptide A13]
- secondary structure from CD spectrum [1]: random coil-coil formation
- secretion of the chemokine CXCL10 [3]: without affecting CXL10 responses
- type I IFN responses [3]: significantly increased type I IFN responses
- synergistic effect of supporting STING activation: CXCL10 cytokine secretion [2]: strongly affected the synergistic effects
- synergistic effect of supporting STING activation: induction of type I IFNs [2]: affected polypeptide synergistic effects

Substance: KKYKNAVLLKGLEVINDYHF ((1)..(20) An immunomodulatory polypeptide derived from the pyrin domain of human IFI16 with amino acid residue changes.) [peptide A6]
- viral inhibition of alanine variant compared with SEQ ID NO.6 [5]: depleted
- secretion of interleukin IL6 [3]: prohibited the synergistic effects
- synergistic effect of supporting STING activation: induction of type I IFNs [2]: affected polypeptide synergistic effects

Substance: Biotin-EDIPTLEDLAETLKKEKLKGRKKRRQRRRPQ-NH2 [S7]
- synergistic effects on STING activation [6]: not to lead to synergistic effects on STING activation

Substance: KKYKNIVLLKGLEVANDYHF ((1)..(20) An immunomodulatory polypeptide derived from the pyrin domain of human IFI16 with amino acid residue changes.) [peptide A15]
- secretion of interleukin IL6 [3]: prohibited the synergistic effects

Substance: KKYKNIVLLKGLEVINDYHA ((1)..(20) An immunomodulatory polypeptide derived from the pyrin domain of human IFI16 with amino acid residue changes.) [peptide A20]
- synergistic effect of supporting STING activation: CXCL10 cytokine secretion [2]: strongly affected the synergistic effects

Substance: KKYKNIVLLKGAEVINDYHF ((1)..(20) An immunomodulatory polypeptide derived from the pyrin domain of human IFI16 with amino acid residue changes.) [peptide A12]
- synergistic effect of supporting STING activation: induction of type I IFNs [2]: affected polypeptide synergistic effects

Substance: KAYKNIVLLKGLEVINDYHF ((1)..(20) An immunomodulatory polypeptide derived from the pyrin domain of human IFI16 with amino acid residue changes.) [peptide A2]
- secretion of interleukin IL6 [3]: very potent and synergistic effect
- secretion of the chemokine CXCL10 [3]: partly impaired CXCL10
- synergistic effect of supporting STING activation: induction of type I IFNs [2]: affected polypeptide synergistic effects

Substance: KKYKNIVLLKGLEVINAYHF ((1)..(20) An immunomodulatory polypeptide derived from the pyrin domain of human IFI16 with amino acid residue changes.) [peptide A17]
- viral inhibition [5]: ~100%

Substance: KKYKNIVLLAGLEVINDYHF ((1)..(20) An immunomodulatory polypeptide derived from the pyrin domain of human IFI16 with amino acid residue changes.) [peptide A10]
- viral inhibition [5]: ~100%
- antiviral effect compared with polypeptide NO. 6 at increased MOI ([5]; HSV-1 GFP MOI 0.1, 25 μg/mL, 48 hpi): increased effect
- secretion of interleukin IL6 [3]: damped IL6 secretion
- secretion of the chemokine CXCL10 [3]: without affecting CXL10 responses
- type I IFN responses [3]: significantly increased type I IFN responses
- synergistic effect of supporting STING activation: induction of type I IFNs [2]: affected polypeptide synergistic effects

Substance: KKYKNIVLLKGLAVINDYAA ((1)..(20) An immunomodulatory polypeptide derived from the pyrin domain of human IFI16 with amino acid residue changes.) [peptide 107]
- CXCL10 secretion [7]: supported increased IFN and CXCL10 secretion
- IFN secretion [7]: supported increased IFN and CXCL10 secretion
- IL6 response [7]: impaired the IL6 response
